Source: EP0423524A2, “Propiophenone derivatives and their preparation and pharmaceutical use” (MARUHO Co., Ltd., priority 1989, dated 1991)
Structures can show the parent of a compound that is named as a salt.

Experiments:
Format in all cases: in vivo
Male Slc-ddy mice [1] = experiment: Anti-strychnine effect (time from tonic convulsions to death after subcutaneous strychnine nitrate); conditions: for ED50: Mus musculus, po, 0.5 h, read-out: ED₅₀ values for the anti-strychnine effect; for anti-strychnine effect compared with eperisone hydrochloride / Anti-strychnine effect Effect: 100 mg/10 ml/kg oral; for Anti-strychnine effect Effect: 30 min, compared with eperisone hydrochloride
Experimental: Strychnine is known to enhance reflex stimulation, among others, of spinal cord to induce convulsions. If this effect of strychnine can be suppressed by administration of any of the above-mentioned compounds, this compound is expected to have a central muscle relaxation effect.
Male Slc-ddy mice of 25 - 30 g (5 weeks old) were used in groups of 7 - 10.
The test compounds (100 mg/10 ml/kg) were orally administered to the mice, and after 30 min, 1.5 mg/10 ml/kg of strychnine nitrate was administered subcutaneously, and the time was measured from the occurence of tonic convulsions to the death of the animals. Cases in which this time was extended to 6 min or more were judged as corresponding to an anti-strychnine effect, and with the number of such cases as index, comparison was made with the reference compound (eperisone hydrochloride). […] The ED₅₀ values (95% confidence limit) for the anti-strychnine effect were determined by the Litchfield-Wilcoxon method and are shown in Table 3.

Male Slc-ddy mice [2] = experiment: Anti-nicotinic effect (survival after intravenous nicotine bitartrate); conditions: for anti-nicotinic effect compared with eperisone hydrochloride / Anti-nicotinic effect Effect: 100 mg/10 ml/kg oral; for Anti-nicotinic effect Effect: 30 min, compared with eperisone hydrochloride; for ED50: Mus musculus, 0.5 h, oral, nicotine bitartrate 3 mg/10 ml/kg i.v. after 30 min, Litchfield-Wilcoxon, 95 % confidence limit in brackets, read-out: ED₅₀ values for the anti-nicotinic effect
Experimental: Experimental Method of Male Slc-ddy mice/30 - 35 g (6 weeks old) were used as test animals in groups of 7 - 10. The test compounds (100 mg/10 ml/kg) were orally administered to the mice, and after 30 min, nicotine bitartrate (3 mg/10 ml/kg) was administered intravenously, and the number of animals killed due to tonic convulsion was counted. The surviving animals were judged as having an anti-nicotinic effect, and with the number thereof as index the comparison concerning the anti-nicotinic effect was made with the reference compound (eperisone hydrochloride).

Acute toxicity test = conditions: mouse, in vivo, po, mice, observation for 7 days, Litchfield-Wilcoxon, 95% confidence limit in brackets, read-out: LD₅₀ values (50% of lethal dose)
Experimental: (§1) Male ddy mice of 20-30 g were used as test animals in groups of 5-10. The test compounds were dissolved or suspended in 0.5 % Tween 80 aqueous solution, and orally administered to the mice. Observation was made for 7 days after administration. The LD₅₀ values (50% of lethal dose) (95% confidence limit) were determined by the Litchfield-Wilconxon method, and are shown in Table 4.

Male Slc-ddy mice [3] = experiment: Inhibitory effect on the motor coordination (rotating rod test); conditions: for Inhibitory effect on motor coordination Effect: 300 - 600 mg/10 ml/kg oral, 30 min, compared with eperisone hydrochloride; for ED50: Mus musculus, 0.5 h, read-out: ED₅₀ values for the inhibitory effect on the motor coordination
Experimental: Male Slc-ddy mice of 20 - 25 g (5 weeks old) were used in groups of 7 - 10. The test compounds were used dissolved or suspended in 0.5 % CMC or 0.5 % Tween 80 solution. Each test compound (300 - 600 mg/10 ml/kg) was orally administered to the mice, and after 30 min the mice were put on a 3-cm diameter rod rotating at a speed of 10 min⁻¹ in a direction opposite to the rotation direction, and the time of staying on it was measured to a maximum of 180 s. Those falling off of the rotating rod within 60 s were judged as having an inhibitory effect on the motor coordination and, with the number of cases as index, comparison was made with the reference compound (eperisone hydrochloride).
The mice were trained in advance to be able to stay on the rotating rod for more than 300 s, and those capable of staying on it for more than 250 s immediately before testing were used.

Male ddy mice = experiment: Acute toxicity test; conditions: oral
Experimental: as §1

[4] = oral, rotating rod 30 min after administration, falling off within 60 s counted as positive, 95% confidence limit in brackets

Row | Compound | ED50 (Male Slc-ddy mice [1]) [mg/kg] | anti-strychnine effect compared with eperisone hydrochloride (Male Slc-ddy mice [1]; mice) | Anti-strychnine effect Effect (Male Slc-ddy mice [1]; mice) | anti-nicotinic effect compared with eperisone hydrochloride (Male Slc-ddy mice [2]) | Anti-nicotinic effect Effect (Male Slc-ddy mice [2]) | ED50 (Male Slc-ddy mice [2]) [mg/kg] | LD50 at 168 h (Acute toxicity test) [mg/kg] | Inhibitory effect on motor coordination Effect (Male Slc-ddy mice [3]) | ED50 (Male Slc-ddy mice [3]; [4]) [mg/kg] | inhibitory effect on the motor coordination compared with eperisone hydrochloride (Male Slc-ddy mice [3]; oral) | ED₅₀ values for the anti-strychnine effect (Male Slc-ddy mice [1]; mice, oral, strychnine nitrate 1.5 mg/10 ml/kg s.c. after 30 min, Litchfield-Wilcoxon, 95% confidence limit in brackets) | minimum lethal dose relative to the minimum amount necessary for developing a pharmacological effect (safety margin) (Male ddy mice) | ED₅₀ values for the inhibitory effect on the motor coordination (Male Slc-ddy mice [3]; [4]) | LD₅₀ values (50% of lethal dose) (Male ddy mice; observation for 7 days, Litchfield-Wilcoxon, 95% confidence limit in brackets, 10080 min)
1 | Cc1ccc(C(=O)C(C)Cn2ccnc2)cc1C (centres unmarked) [Compound 14, 3-(1H-imidazol-1-yl)-2-methyl-1-(3,4-dimethylphenyl)-propan-1-one] | 33 | stronger anti-strychnine effect than eperisone hydrochloride | ◎ | stronger anti-nicotinic effect than eperisone hydrochloride | ◎ | 32 | 209 | 0 | 100 | stronger inhibitory effect on the motor coordination than eperisone hydrochloride |  |  |  | 
2 | CCc1ccc(C2(C(C)Cn3ccnc3)OCCO2)cc1 (centres unmarked) [Compound 23] | 155 | stronger anti-strychnine effect than eperisone hydrochloride | ○ | stronger anti-nicotinic effect than eperisone hydrochloride | ◎ | 46 | 415 | ◎ | 210 | stronger inhibitory effect on the motor coordination than eperisone hydrochloride |  |  |  | 
3 | CCc1ccc(C(=O)C(C)CN2CCCCC2)cc1 (centres unmarked) [Eperisone hydrochloride, reference compound] |  |  |  |  |  | 140 | 303 |  |  |  | No effect detected | the minimum lethal dose is close to the minimum amount necessary for developing a pharmacological effect | positive cases not in excess of 50% | 
4 | CCc1ccc(C(=O)C(C)Cn2ccnc2)cc1 (centres unmarked) [Hydrochloride of compound 2] |  |  |  |  |  |  |  |  |  |  |  |  |  | 225 mg/kg (182-278)
